Reference: PMC10534891, “Evaluation of 4-Aminoquinoline Hydrazone Analogues as Potential Leads for Drug-Resistant Malaria” (Molecules, 2023)

Columns and labels:
[1] = test system: P. falciparum K1 strain; experiment: P. falciparum K1 asexual growth inhibition, 48 h, SYBR Green-based plate reader assay; assay type: cell-based, Plasmodium falciparum; conditions: K1 strain, trophozoite stage, 48 h incubation; for IC50: Plasmodium falciparum, read-out: Plasmodium IC50 ± SE
Description: Sixteen 4-amino-6-methoxy-quinoline hydrazone compounds (see Figure S1, Supplementary Materials for full structures), with methyl and phenyl substituents at the 2-position (R = Me, Ph) and various substituents at R’ (Table 1), were tested for their antimalarial activities. A 1% parasitised culture at the trophozoite stage was treated with the compounds for 48 h at concentrations of 0.003050–200 µM (four-fold serial dilution) against the P. falciparum K1 strain, and the growth was measured using the SYBR Green-based plate reader assay.
(§1) In total, 1% of infected RBCs at the ring or trophozoites stage was exposed to nine dilutions (four-fold serial dilution) of compounds from 50 mM stock solutions in DMSO. A total of 100 µL of culture volume was added in 96-well plates with 100 µL drug dilutions. Plates were either incubated for 48 h or 72 h at 37 °C, 5% CO2, 5% O2 in N2. Following the incubation, 150 µL of the medium was carefully removed and 150 µL of the 5× SYBR Green solution (prepared by adding 2 µL of 10,000× SYBR Green in 4 mL of PBS) was added to each well. Plates were kept in the dark for 45 min. Fluorescence intensity was measured using a microplate reader (Genius Tecan) with an excitation of 485 nm and an emission of 535 nm.
(§2) IC50 values were determined using Graph Pad Prism 5.0. Values were calculated using non-linear regression by using log-transformed drug concentration plotted against dose–response. Parasitaemia was calculated and normalised relative to the response on the controls (cultures without drug).

[2] = MTT cytotoxicity assay, MDBK; assay type: cell-based, bovine; conditions: bovine, MDBK cells; MTT, 5 days; read-out: Cell Toxicity IC50 ± SE MDBK
Description: (§3) An MTT (3-(4,5-dimethylthiazol-2-yl)-2,5-diphenyl tetrazolium bromide) assay was performed to investigate the toxicity of the 4-aminoquinoline hydrazone compounds. HepG2 and MDBK cells were incubated with a two-fold serial dilution at dose ranges from 0.39 to 25 µM for 5 days.
(§4) Human hepatoma (HepG2) and the Madin–Darby bovine kidney (MDBK) cell lines were purchased from American Type Culture Collection (ATCC), USA. The MDBK cell line was cultured with Dulbecco’s Modified Eagle’s Medium (DMEM) containing 4.5 g/L (+)-D-glucose and L-glutamine, while the HepG2 cell line was cultured with RPMI 1640 containing 2 mM L-glutamine and HEPES. The culture medium was supplemented with 10% Fetal Bovine Serum (FBS) and 1% penicillin. Cells were maintained in the presence of 5% CO2 atmosphere at 37 °C. The assay was carried out on a 96-well plate, with each well containing 4 × 10^3 cells. Plates were firstly incubated for 24 h at 37 °C to ensure cell adherence. The cells were then treated with 100 µL of the drug solution prepared at various concentrations and further incubated for 5 days. After the incubation period, 50 µL of the MTT (3-(4,5-dimethylthiazol-2-yl)-2,5-diphenyltetrazolium bromide, Sigma, UK) solution was added to each well and incubated for a further 3 h. The MTT solution and medium were aspirated, 150 µL of DMSO was added to each well, and the results were read on the Ascent plate reader.

[3] = MTT cytotoxicity assay, HepG2; assay type: cell-based, Human; conditions: human, HepG2 cells; MTT, 5 days; read-out: Cell Toxicity IC50 ± SE HepG2
Description: as §3, §4

[4] = test system: P. yoelii NL
Description: We next assessed the antimalarial activity of compound 2 in vivo within a P. yoelii NL murine model of blood-stage malaria. […] Two dosages of the drug were tested, 5 mg/kg and 20 mg/kg (intravenous tail vein injection), while another group of mice was administered with the drug vehicle alone (Figure 3). The lead compound 2 was injected once a day for 4 days, starting at day 11 when the infection level reached ~5% parasitaemia. Mice were monitored for a total of 20 days in order to detect signs of infection rebound or eventual toxicity.
C57BL/6 mice were purchased from Charles River, UK, and were maintained at the University of Manchester in individually ventilated cages. A total of six mice were used for this experiment and kept in the cage (two in each cage) with randomisation of mice given antimalarial drugs and vehicle control. The mice were maintained in individually ventilated cages with food and water ad libitum. Male and females were kept within separate cages during the course of the experiment. The mice generally weighed 18–20 g at the start of the experiment. Cryopreserved P. yoelii NL parasites were passed once through mice before the infection experiment. Male/female mice 6–10 weeks in age were infected with 1 × 10^4 parasitised red blood cells (pRBCs) via intravenous injection in the tail vein. Parasitaemia growth was monitored via Giemsa-stained blood smears. Three groups of mice (placebo, drug dose of 5 mg/kg or 20 mg/kg) were used for this experiment. Compound 2 was injected once a day for 4 days starting at the day the infection level reached ~5% parasitaemia. After the injection, mice were monitored for 20 days to detect eventual signs of both infection rebound and toxicity.

[5] = test system: P. falciparum K1 strain; experiment: P. falciparum K1 dose-response, 72 h, SYBR Green-based plate reader assay; assay type: cell-based; conditions: Plasmodium falciparum
Description: We set up drug efficacy assays for the eight lead compounds 1–5, 12–14 (selected based on the best antimalarial activities) (Table 1), with 72 h incubation on parasitised culture. A dose–response experiment was initiated on 1% synchronous culture at the ring stages of the P. falciparum K1 strain. The selected compounds were tested at three-fold serial dilutions from 6.86 to 5000 nM. […] The selectivity indices (IC50 human cells/IC50 parasites) were calculated based on the 72 h exposure studies and are presented in Table 2.
as §1, §2

[6] = test system: MDBK cells; experiment: MTT cytotoxicity assay, MDBK; assay type: cell-based, bovine; conditions: MDBK IC50 (5 days) / K1 72 h IC50; IC50 = 25 μM assumed for compounds 5 and 13
Description: as §3, §4

[7] = test system: P. falciparum 3D7; experiment: P. falciparum 3D7 dose-response, 72 h, SYBR Green-based plate reader assay; assay type: cell-based; conditions: Plasmodium falciparum, ring stage, read-out: 3D7 IC50 ± SE
Description: (§5) The lead compounds 1 and 2 were further evaluated against the chloroquine-resistant P. falciparum Dd2 strain and chloroquine-sensitive P. falciparum 3D7. The drug activity assay was initiated on 1% infected blood at ring stages of the parasites at four-fold serial dilution from 0.00305 to 200 µM. The growth was measured after 72 h using an SYBR Green-based plate reader assay.
as §1

[8] = test system: P. falciparum Dd2 strain; experiment: P. falciparum Dd2 dose-response, 72 h, SYBR Green-based plate reader assay; assay type: cell-based; conditions: Plasmodium falciparum, ring stage, read-out: Dd2 IC50 ± SE
Description: as §5, §1

[9] = test system: HepG2 cells; experiment: MTT cytotoxicity assay, HepG2; assay type: cell-based, Human; conditions: HepG2 IC50 (5 days) / K1 72 h IC50; IC50 = 25 μM assumed for compound 13
Description: as §3, §4

[10] = test system: P. falciparum K1 cultures; experiment: Time-course assay, SYBR Green flow cytometer method; assay type: cell-based, Plasmodium falciparum; conditions: IC50 doses, 24, 48, 72 h
Description: A panel of compounds were selected based on activity and progressed in the time-course assay to define the activity timelines of the compounds. The assay was performed on 1% unsynchronised P. falciparum K1 cultures treated with previously determined IC50 (Table 1) doses of the lead compounds for 24, 48, and 72 h. […] It was also observed that the activity of the compounds became more pronounced as the time progressed up until 72 h of exposure.
The time-course assay was used to define the activity timelines of the 4-aminoquinoline hydrazone compounds. Parasite growth of K1 strain P. falciparum in the presence of 4-aminoquinoline hydrazone compounds was assessed on asynchronous culture. The growth impairment of K1 culture was initiated at 1% parasitaemia for 24, 48, and 72 h. The assay was analysed by flow cytometry as described below.
Following drug efficacy experiments, 100 µL from the control and drug-treated samples on a 96-well plate were transferred to a micro-centrifuge tube containing 1 mL of PBS. The samples were centrifuged at 1200 rpm for 2 min. […] The pellet was re-suspended in PBS (1 mL) and parasitaemia was determined by SYBR Green fluorescence using the FITC channel of the BD FACs Verse flow cytometer system (Blue laser, excitation laser line 488 nM Exmax 494/EMmax 520 nM) and cell size (forward scatter, FSC-A). […]

[11] = test system: P. falciparum K1 strain; experiment: Stage specificity assay; assay type: cell-based, Plasmodium falciparum; conditions: 50–100 times IC50, 24 h exposure, wash-out, further 24 h
Description: The stage specificity was evaluated by conducting drug susceptibility experiments on synchronous cultures either at early rings or schizonts stages (as detailed in the Section 4). […] Cultures were exposed to drug treatment for 24 h, after which the compounds were washed out and incubated in complete RPMI medium for a further 24 h.
P. falciparum K1 was synchronised twice with 5% sorbitol at 0 h and 31 h to obtain early rings (up to 3 h old). In order to obtain late trophozoites to early schizonts, the culture was synchronised twice at 0 h and 6 h. Each synchronous stage was diluted to 1% parasitaemia. […] The dilution ranged from 1.6 to 100× fold of the previously determined IC50 of each compound in a standard 48 h assay. After a 24 h incubation period, the plates were washed 4 times resulting in about a 100-fold dilution of the free compound. The plates were further incubated for an additional 24 h at 37 °C and analysed using SYBR Green staining assays as previously described.

[12] = ring stage, 72 h incubation, read-out: Plasmodium IC50 ± SE

| Compound | IC50 [1] [µM] | IC50 at 5 days [2] [µM] | IC50 at 5 days [3] [µM] | IC50 [5, 12] [µM] | Selectivity Indices (MDBK) [6] | Selectivity Indices (HepG2) [9] | other results |
| --- | --- | --- | --- | --- | --- | --- | --- |
| COc1ccc2nc(C)cc(N/N=C/c3ccc([N+](=O)[O-])cc3)c2c1 [Compound 7] | 20.1 | 6.68 ± 1.7 | 1.69 | – | – | – | – |
| COc1ccc2nc(C)cc(N/N=C/c3c[nH]cn3)c2c1 [Compound 6] | 48.8 | 11.7 ± 2.5 | 7.26 ± 1 | – | – | – | – |
| COc1ccc2nc(C)cc(N/N=C/c3ccc(C(=O)O)cc3)c2c1 [Compound 9] | > 200 | > 25 | > 25 | – | – | – | Plasmodium IC50 ± SE [1]: inactive |
| COc1ccc2nc(-c3ccccc3)cc(N/N=C/c3c[nH]cn3)c2c1 [Compound 15] | 28.3 ± 29 | 9.31 ± 3.5 | 2.21 ± 0.15 | – | – | – | – |
| COc1ccc2nc(C)cc(NN=Cc3ccccc3)c2c1 [Compound 2, 4-(2-benzylidenehydrazinyl)-6-methoxy-2-methylquinoline] | 2.26 ± 2.2 | 3.44 ± 2.7 | 1.9 ± 0.11 | 0.0329 ± 0.007 | 101 | 58 | Signs of toxicity in treated mice ([4]; 5 and 20 mg/kg i.v., monitored over three weeks): no detectable signs of significant toxicity; Effect on parasitaemia, 20 mg/kg and 5 mg/kg ([4]; P. yoelii NL-treated mice): suppression of parasitaemia; Parasitaemia after drug treatment was suspended ([4]; mice, 5 mg/kg and 20 mg/kg i.v. once a day for 4 days): less than 4%; Effect on parasitaemia, 5 mg/kg ([4]; mice, 5 mg/kg i.v. once a day for 4 days): delayed activity; IC50 ([5]; 72 h, read-out: IC50): 0.032 µM; IC50 [7]: 0.0554 µM; IC50 [8]: 0.0244 µM |
| COc1ccc2nc(C)cc(N/N=C/c3cccnc3)c2c1 [Compound 3] | 3.29 ± 1.6 | 7.34 ± 7.6 | 3 ± 0.27 | 0.175 ± 0.04 | 42 | 17 | Onset of activity in time-course [10]: delayed activity |
| COc1ccc2nc(C)cc(N/N=C/c3ccc(O)cc3)c2c1 [Compound 8] | 22.3 | 3.73 ± 1.2 | 1.97 ± 0.42 | – | – | – | – |
| COc1ccc2nc(C)cc(N/N=C/c3cccc(O)c3)c2c1 [Compound 10] | 18.9 | 9.71 ± 3.5 | 2.64 ± 0.2 | – | – | – | – |
| COc1ccc2nc(C)cc(N/N=C/c3cc(O)cc(O)c3)c2c1 [Compound 11] | 35.9 ± 43 | > 25 | 11.1 ± 2.9 | – | – | – | – |
| COc1ccc2nc(-c3ccccc3)cc(N/N=C/c3ccc(N(C)C)cc3)c2c1 [Compound 16] | 8.06 ± 4.5 | 6.24 | 4.15 ± 2.4 | – | – | – | – |
| COc1ccc2nc(C)cc(N/N=C/c3cccc(OC)c3O)c2c1 [Compound 5] | 3.82 | > 25 | 6.73 ± 0.73 | 0.174 ± 0.03 | >143 | 39 | Inhibition of parasitaemia growth, schizont stage [11]: more than 25% |
| COc1ccc2nc(-c3ccccc3)cc(N/N=C/c3cccc(OC)c3O)c2c1 [Compound 12] | 5.67 ± 13 | 6.6 | 1.8 ± 0.78 | 0.133 ± 0.06 | 50 | 14 | – |
| COc1ccc2nc(-c3ccccc3)cc(N/N=C/c3ccc([N+](=O)[O-])cc3)c2c1 [Compound 14] | 2.2 ± 1.5 | 4.24 ± 1 | 0.89 ± 0.13 | 0.176 ± 0.06 | – | 5 | Inhibition of parasitaemia growth, schizont stage [11]: more than 25% |
| COc1ccc2nc(C)cc(N/N=C/c3ccc(F)cc3)c2c1 [Compound 1] | 0.612 ± 0.35 | 3.77 ± 1.5 | 0.872 ± 0.79 | 0.0257 | 147 | 34 | IC50 ([5]; 72 h, read-out: IC50): 0.025 µM; IC50 [7]: 0.183 µM; IC50 [8]: 0.133 µM |
